# Legend:
# [1] = target: T1, β-glucuronidase (Escherichia coli, UniProt P05804); assay: In vitro enzymatic reaction with β-glucuronidase, headspace SPME GC-MS detection of phenol; type: biochemical; conditions: pH 6.8 buffer, 37° C., 1 hour
# T1 construct: purchased Sigma-Aldrich 8162
# Protocol: A buffer is prepared with sterile water, the main components of the buffer include 75 millimoles per liter (mM) potassium phosphate (KH2PO4) and 1% bovine serum albumin (BSA), and 1 mole per liter (M) potassium hydroxide (KOH) is used to adjust the pH to 6.8. A phenyl-β-D-glucuronide solution is prepared with deionized water at a concentration of 0.75 grams per liter (g/L). The experiment is divided into a reactive group (also referred to as experimental group) and a control group, and 2.6 mL of deionized water, 2 mL of buffer and 1 mL of phenyl-β-D-glucuronide solution are successively added into two 20 mL injection bottles. After shaking well, they are stabilized in a water bath at 37° C. for 10 minutes. 2 microliters (μL) of β-glucuronidase glycerol solution (enzyme content: 500 U) are added in the bottle of the reactive group, and 2 uL of glycerol is added in the bottle of the control group. The covers are quickly tightened for reacting in a water bath at 37° C. for 1 hour. After the reaction, the aged extraction core is used for headspace solid-phase microextraction (also referred to as solid phase microextraction) for 30 minutes.
# [2] = system: gastric mucosal epithelial cells; conditions: 500 μg/mL, 40 hours incubation, CCK-8
# Protocol: There is culture medium without inoculation of the cells with 100 μL per well. After incubation for 40 hours, the culture medium is discarded, 100 μL DMEM medium containing 10% cell counting kit 8 (CCK-8) is added to each well, and then incubated in the incubator for 2 hours. The value of optical density (OD) at 450 nm is monitored with a microplate reader for each well, and the cell viability is calculated based on the value of optical density.
# [3] = system: MGC-803 subcutaneous gastric cancer model
# Protocol: In the embodiment of the disclosure, the mice used are 6-week-old female BALB/c-nude mice, specific pathogen-free (SPF) grade, and the weight at purchase is 17±1.5 g. purchased from Shanghai Jessie Experimental Animal Co., Ltd. Mice are raised in cages in clean animal rooms. The cages are ventilated through a central control system. The indoor temperature is 25±2° C., and the feed and water are used after autoclaved.
# After one week of adaptive feeding of the nude mice, the body weight is 20±2 g. During the feeding period, the growth and mental state of the mice are observed every day. The mice are randomly divided into two groups, namely a cancer group and a healthy group. In the cancer group, MGC-803 cells are used to construct a subcutaneous gastric cancer model. […] After the cells are adhered to the wall and grown to full size, they are digested with pancreatic enzyme, centrifuged, washed twice with PBS to remove residual serum, resuspended with PBS at a cell density of approximately about 5*10^7 cells/mL, and a cell inoculation volume of each mouse is 100 μL. The cell suspension used for inoculation should be inoculated within half an hour. During this period, the cells are placed on ice to reduce the metabolic activity of the cells to maintain cell activity. The tumor is implanted in the area with abundant blood supply in the middle and rear of the armpit, and the size of the tumor is measured weekly after the tumor is formed. Generally, the induced volatolomics experiment can be started at the third week after the implantation of the cells.
# The exhaled breath extraction device enriches the volatile substances in the exhaled breath of mice to the extraction core of headspace solid-phase microextraction (SPME), which is used to analyze the composition and relative content of the exhaled breath of mice before and after drug administration. A large mouth glass container with a volume of about 400 mL is used, the bottle mouth is frosted, and the sealing gasket, silicone plug and fixing clip are used to ensure sealing. The device is cleaned and dried before use. The mice needed to extract exhaled breath components are put into the glass container. The whole device is placed in a constant temperature environment of 25° C., sealed for 1 hour, and supplemented with oxygen at an interval of 15 minutes by injecting 10 mL of pure oxygen (99.9%) through the silicone plug with a glass syringe. After sealing for 1 hour, a 75 μm Car/PDMS extraction core is inserted into the glass container through the silicone plug, and the black extraction core is extended for headspace solid-phase microextraction for 30 minutes. The extraction process is carried out at a constant temperature of 25° C., and the oxygen is supplemented regularly according to the above process.
# The above 10 healthy mice and 10 tumor bearing mice are taken and injected with MGC-803 cells subcutaneously as Day 0 in the experiment.
# [4] = Stability verification of phenyl-β-D-glucuronide PBS solution (UPLC-MS and PDA detector); type: physicochemical; conditions: for peak area of phenyl-β-D-glucuronide: 400 μg/mL in PBS, PDA detector at 280 nm
# Protocol: PBS is used as solvent to prepare a phenyl-β-D-glucuronide solution at a concentration of 400 micrograms per milliliter (μg/mL), 1 mL phenyl-β-D-glucuronide solution is added individually into 1.5-mL injection bottles and sealed. The four bottles of drug solutions are treated as follows: the bottle A is a ready-to-use drug immediately analyzed for composition using ultra performance liquid chromatography mass spectrometry (UPLC-MS); the bottle B is placed in a refrigerator at 4° C. for 2 weeks and then analyzed for composition using UPLC-MS; the bottle C is placed at room temperature (25° C.) for 1 week and then analyzed for composition using UPLC-MS; and the ready-to-use drug in bottle D is analyzed for composition using UPLC-MS and […] (PDA) detectors after heating for 7 hours at 38.5° C. in a water bath. In addition, a 20 parts per million (ppm) phenol standard solution is prepared for UPLC-MS and PDA analysis.
# The results are shown in FIGS. 1A-1D, FIGS. 2A-2D, and FIGS. 3A-3E.
# The main purpose of setting these three temperatures (i.e., room temperature, 4° C., and 38.5° C.) is to characterize that the drug can be stored in a 4° C. refrigerator or room temperature for a long time without decomposition or deterioration. From the peak area data, it can be seen that the drug can be stored in a 4° C. refrigerator for 2 weeks or at room temperature for 1 week, and the effective component of the drug, phenyl-β-D-glucuronide, is basically unchanged, so under the condition of qualified sealing conditions, the drug solution can be stored for a longer time, which has practical application potential.
# T1 sequence (P05804 whole entry): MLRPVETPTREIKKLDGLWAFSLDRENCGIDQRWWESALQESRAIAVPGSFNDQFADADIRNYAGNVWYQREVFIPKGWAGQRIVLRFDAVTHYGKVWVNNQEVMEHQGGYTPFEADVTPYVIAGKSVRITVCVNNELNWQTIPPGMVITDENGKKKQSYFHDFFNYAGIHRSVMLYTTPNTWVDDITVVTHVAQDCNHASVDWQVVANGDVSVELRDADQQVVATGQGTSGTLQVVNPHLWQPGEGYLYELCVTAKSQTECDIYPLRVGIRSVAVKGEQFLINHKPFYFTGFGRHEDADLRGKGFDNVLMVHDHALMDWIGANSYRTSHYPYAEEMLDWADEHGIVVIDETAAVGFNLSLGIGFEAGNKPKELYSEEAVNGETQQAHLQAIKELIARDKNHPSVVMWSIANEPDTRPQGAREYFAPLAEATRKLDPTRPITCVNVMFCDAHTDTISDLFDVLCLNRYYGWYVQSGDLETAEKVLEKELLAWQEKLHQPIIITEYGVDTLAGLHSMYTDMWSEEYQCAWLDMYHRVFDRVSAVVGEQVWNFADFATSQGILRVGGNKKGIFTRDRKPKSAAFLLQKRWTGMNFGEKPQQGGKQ
compound,measurement,setting,value
O=C(O)[C@H]1O[C@@H](Oc2ccccc2)[C@H](O)[C@@H](O)[C@@H]1O [phenyl-β-D-glucuronide],decomposition of substrate without β-glucuronidase,"[1]; control group, glycerol instead of enzyme",not decomposed
same,phenol production under the action of β-glucuronidase,"[1]; experimental group, 500 U enzyme",produces phenol
same,cell viability,[2],greater than 90%
same,"phenol level in exhaled breath, tumor bearing mouse group versus healthy mouse group","[3]; Day 0 (no solid tumors), 200 μg/kg intravenously, Mann-Whitney U-test",consistent without significant difference
same,"phenol level in exhaled breath, tumor bearing mouse group versus healthy group","[3]; from the 10th day onwards (solid tumors about 100 mm^3), 200 μg/kg intravenously, p<0.01",significantly higher
same,toxic or side effect in animal experiment,"[3]; mouse, in vivo",no toxic or side effect
same,fitted curve parameter A (tumor volume=A+B*phenol level in exhaled breath),"[3]; tumor bearing mice, FIG. 6",2065116.64068±293370.09484
same,fitted curve parameter B (tumor volume=A+B*phenol level in exhaled breath),"[3]; tumor bearing mice, FIG. 6",26167.51388±981.4
same,peak area of phenyl-β-D-glucuronide,"[4]; bottle A, newly prepared",2143
same,peak area of phenyl-β-D-glucuronide,"[4]; bottle B, refrigerator at 4° C. for 2 weeks",2142
same,peak area of phenyl-β-D-glucuronide,"[4]; bottle C, room temperature (25° C.) for 1 week",2144
same,peak area of phenyl-β-D-glucuronide,"[4]; bottle D, heated 7 hours at 38.5° C. in a water bath",2160
same,storage time of PBS solution,[4]; 4° C. refrigerator,at least 2 weeks
same,new substances produced (other peaks) in the four bottles of solutions,"[4]; all four storage conditions, UPLC-MS and PDA",no other peaks of the new substances produced
same,peak of phenol in the four bottles of solutions compared with phenol standard,"[4]; all four storage conditions, versus 20 ppm phenol standard",no peak of phenol
same,self-decomposition without the action of enzymes,[4]; normal body temperature range (generally less than 38.5° C.),will not decompose by itself
same,storage time of PBS solution,[4]; room temperature,at least 1 week

# — patent publication US12115177B1, “Application of phenyl glucuronide in preparing drug for pre-warning of cancer via induced volatolomics” (Shanghai Jiao Tong University, priority 2023, dated 2024)
